The results in this text go back to US6245736A, “Use of peptidic bradykinin antagonists for the treatment and prevention of Alzheimer's disease” (Aventis Pharma Deutschland GmbH, priority 1996, dated 2001).

Assay type in all cases: cell-based
The test system of experiment [1] is bovine aortic endothelial cells. The experiment is described as follows: cGMP production stimulated by the Alzheimer protein β/A4 in endothelial cell cultures (BAECs), radioimmunoassay. The text has this:
(§1) Action of the compounds of the formula (I) on cGMP production stimulated by the Alzheimer protein β/A4 in endothelial cell cultures
(§2) Bovine aortic endothelial cell cultures (BAECs=bovine aortic endothelial cells), […] coronary rat endothelial cell cultures (RMCECs=rat microvascular coronary endothelial cells) and human umbilical vein endothelial cell cultures (HUVECs=human umbilical vein endothelial cells)
(§3) Determination of the effect of bradykinin antagonists of the formula (I) on the production of cGMP stimulated by administration of 0.1 and 1 μmol/l of the Alzheimer protein β/A4 in endothelial cell cultures of various species and organs.
(§4) In endothelial cells, bradykinin leads to an increase in the production of cGMP, which is determined by means of a radioimmunoassay. Increase in the formation of cGMP by bradykinin is an indicator of a release of NO (nitrogen monoxide) from endothelial cells.
(§5) Stimulation of cGMP production by βA(1-40) and inhibitory effect of the bradykinin antagonist HOE 140 (10^-7 mol/l) in 3 different types of endothelial cells: […]

The subject of experiment [2] is rat microvascular coronary endothelial cells. The experiment is described as follows: cGMP production stimulated by the Alzheimer protein β/A4 in endothelial cell cultures (RMCECs), radioimmunoassay.
Excerpt: as §1, §2, §3, §4, §5

The test system of experiment [3] is human umbilical vein endothelial cells. The experiment can be described thus: cGMP production stimulated by the Alzheimer protein β/A4 in endothelial cell cultures (HUVECs), radioimmunoassay.
Excerpt: as §1, §2, §3, §4, §5

The mark [4] stands for this setting: simultaneous incubation with HOE 140 0.1 μmol/l.
Setting [5] is: stimulated with BK 10^-8 mol/l + HOE 140 (10^-7 mol/l).
[6] abbreviates: stimulated with βA (1-40) 10^-6 mol/l + HOE 140 (10^-7 mol/l).
Where [7] appears, read: stimulated with βA (1-40) 10^-7 mol/l + HOE 140 (10^-7 mol/l).

Where no end group is shown, it is not given here.

Take “βA (1-40): Alzheimer protein amyloid (β/A4), used to stimulate cGMP production [reference compound]”: the cGMP production in experiment [1] (βA (1-40) 10^-6 mol/l alone) is reported as 4.6 ± 0.13 pmol/mg of protein; in experiment [1] (βA (1-40) 10^-7 mol/l alone), 5.9 ± 0.23 pmol/mg of protein; in experiment [2] (βA (1-40) 10^-6 mol/l alone), 0.74 ± 0.09 pmol/mg of protein; in experiment [2] (βA (1-40) 10^-7 mol/l alone), 0.59 ± 0.07 pmol/mg of protein; in experiment [3] (βA (1-40) 10^-6 mol/l alone), 15.3 ± 1.9 pmol/mg of protein; in experiment [3] (βA (1-40) 10^-7 mol/l alone), 14.07 ± 1.6 pmol/mg of protein.

As to `N=C(N)NCCC[C@@H](N)C(=O)N[C@@H](CCCNC(=N)N)C(=O)N1CCC[C@H]1C(=O)N1C[C@H](O)C[C@H]1C(=O)NCC(=O)N[C@@H](Cc1cccs1)C(=O)N[C@@H](CO)C(=O)N1Cc2ccccc2C[C@@H]1C(=O)N1[C@H](C(=O)N[C@@H](CCCNC(=N)N)C(=O)O)C[C@@H]2CCCC[C@@H]21` [HOE 140, H-D-Arg-Arg-Pro-Hyp-Gly-Thi-Ser-D-Tic-Oic-Arg-OH], the “effect on the stimulation of the production of cGMP induced by the β/A4 protein” value in experiment [1] (setting [4]), in experiment [2] (setting [4]) and in experiment [3] (setting [4]) was “prevents the stimulation of the production of cGMP” each time. Further, the cGMP production in experiment [1] (setting [5]) is listed as 2.2 ± 0.2 pmol/mg of protein; in experiment [1] (setting [6]), 2.2 ± 0.2 pmol/mg of protein; in experiment [1] (setting [7]) it was 2.2 ± 0.28 pmol/mg of protein; in experiment [2] (setting [5]) it was 0.22 ± 0.02 pmol/mg of protein; in experiment [2] (setting [6]) it was 0.32 ± 0.05 pmol/mg of protein; in experiment [2] (setting [7]), 0.34 ± 0.02 pmol/mg of protein. The results for the cGMP production in experiment [3] (setting [5]), in experiment [3] (setting [6]) and in experiment [3] (setting [7]) were 3.45 ± 0.45 pmol/mg of protein, 5.3 pmol/mg of protein and 4.0 pmol/mg of protein, respectively.

For RPPGFSPFR [BK, bradykinin], the values for the cGMP production in experiment [1] (BK 10^-8 mol/l alone), in experiment [2] (BK 10^-8 mol/l alone) and in experiment [3] (BK 10^-8 mol/l alone) were 8.8 ± 0.34 pmol/mg of protein, 1.13 ± 0.2 pmol/mg of protein and 11.46 ± 2 pmol/mg of protein, respectively.
